# Source: patent US20230265116A1, “DEGRADATION OF (EGFR) BY CONJUGATION OF EGFR INHIBITORS WITH E3 LIGASE LIGAND AND METHODS OF USE” (BEIGENE, LTD., priority 2020, published 2023)
# Where two headings read alike, the source gives them in different places.
# Tests used:
# [1] = target: T1, EGFR L858R/T790M/C797S (BaF3-LTC cells) (Homo sapiens, UniProt P00533, C797S/L858R/T790M); assay: EGFR degradation HTRF assay, BaF3-LTC cells; type: cell-based
# T1 construct: expressed in transfected cells; host or cells: BaF3
# Outline: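 EGFR remaining after a 16 h, 37 °C exposure (8 doses, 5-fold steps from 10 uM final, 0.2% DMSO) was quantified by HTRF antibodies in cell lysate. Percent inhibition relative to DMSO control was fitted by four-parameter logistic to give DC50; Dmax denotes maximal degradation.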
# [2] = system: EGFR Del19/T790M/C797S (H1975-clone #28); assay: EGFR degradation HTRF assay, H1975-clone #28 DTC cells; type: cell-based
# Outline: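 Engineered H1975 lines (lentiviral mutant EGFR, endogenous EGFR knocked out, single-clone verified); 16h compound, 37° C., 5% CO2, 0.2% DMSO; 8-point 5-fold series from 10 uM final. HTRF lysate read; % degradation vs DMSO, four-parameter fit → DC50, Dmax.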
# [3] = BaF3-LTC cells; EGFR degradation, IC50 (DC50) from curve fit; read-out: DC50(nM) BaF3-LTC
# [4] = BaF3-LTC cells; maximum percentage of inhibition (degradation); read-out: Dmax (%) BaF3-LTC
# [5] = H1975 # 28 DTC cells; EGFR degradation, IC50 (DC50) from curve fit; read-out: DC50(nM) H1975 # 28 DTC
# [6] = H1975 # 28 DTC cells; maximum percentage of inhibition (degradation)
# T1 sequence (P00533 25-1210 T790M/C797S/L858R): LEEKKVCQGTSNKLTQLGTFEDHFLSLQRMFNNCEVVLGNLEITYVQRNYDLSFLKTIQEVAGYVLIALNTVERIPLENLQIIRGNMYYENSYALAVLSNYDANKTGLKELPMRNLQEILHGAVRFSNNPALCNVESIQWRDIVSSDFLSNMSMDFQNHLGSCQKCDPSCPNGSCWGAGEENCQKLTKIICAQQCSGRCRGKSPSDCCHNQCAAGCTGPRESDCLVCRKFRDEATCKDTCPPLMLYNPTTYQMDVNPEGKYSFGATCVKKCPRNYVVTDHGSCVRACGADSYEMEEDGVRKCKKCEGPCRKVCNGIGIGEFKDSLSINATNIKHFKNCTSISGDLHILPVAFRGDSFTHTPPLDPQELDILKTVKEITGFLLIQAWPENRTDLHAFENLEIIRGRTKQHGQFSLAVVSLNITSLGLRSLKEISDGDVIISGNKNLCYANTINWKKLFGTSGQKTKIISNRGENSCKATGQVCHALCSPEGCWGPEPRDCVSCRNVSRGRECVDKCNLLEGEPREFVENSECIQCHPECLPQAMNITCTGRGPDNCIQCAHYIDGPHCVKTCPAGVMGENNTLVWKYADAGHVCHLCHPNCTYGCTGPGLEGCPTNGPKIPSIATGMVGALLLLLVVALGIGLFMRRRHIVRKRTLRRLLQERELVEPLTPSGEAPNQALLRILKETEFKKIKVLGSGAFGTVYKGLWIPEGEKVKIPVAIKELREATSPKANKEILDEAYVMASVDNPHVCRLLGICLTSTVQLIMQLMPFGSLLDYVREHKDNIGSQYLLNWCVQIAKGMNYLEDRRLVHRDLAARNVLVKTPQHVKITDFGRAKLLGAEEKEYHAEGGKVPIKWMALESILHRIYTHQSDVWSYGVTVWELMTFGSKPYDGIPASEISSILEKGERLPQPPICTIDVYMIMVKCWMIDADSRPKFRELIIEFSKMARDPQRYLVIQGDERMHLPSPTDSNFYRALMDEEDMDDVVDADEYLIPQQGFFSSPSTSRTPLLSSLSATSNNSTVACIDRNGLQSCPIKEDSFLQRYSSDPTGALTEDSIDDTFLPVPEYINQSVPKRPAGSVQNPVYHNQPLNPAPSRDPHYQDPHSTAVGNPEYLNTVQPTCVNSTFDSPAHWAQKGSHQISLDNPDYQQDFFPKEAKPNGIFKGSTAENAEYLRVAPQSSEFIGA
"DC50 [1, 3]","Dmax [1, 4]","DC50 [2, 5]",SMILES,"Dmax (%) H1975 # 28 DTC [2, 6]","DC50 ([1]; read-out: DC50(nM) BaF3-LTC; BaF3-LTC cells; EGFR degradation, IC50 (DC50) from curve fit)","Dmax ([1]; read-out: Dmax (%) BaF3-LTC, BaF3-LTC cells; maximum percentage of inhibition (degradation))","DC50 ([2]; read-out: DC50(nM) H1975 # 28 DTC; H1975 # 28 DTC cells; EGFR degradation, IC50 (DC50) from curve fit)"
36.5 nM,–,3.52 nM,"CCOc1cc(N2CCC(N3CCN(CCc4cc(F)c(F)c5c4n(CC)c(=O)n5C4CCC(=O)NC4=O)CC3)CC2)c(CC)cc1Nc1ncc(Br)c(Nc2ccc3nc(CC)ccc3c2P(C)(C)=O)n1 (centres unmarked) [Example 742, 3-(4-(2-(4-(1-(4-((5-bromo-4-((5-(dimethylphosphoryl)-2-ethylquinolin-6-yl)amino)pyrimidin-2-yl)amino)-5-ethoxy-2-ethylphenyl)piperidin-4-yl)piperazin-1-yl)ethyl)-3-ethyl-6,7-difluoro-2-oxo-2,3-dihydro-1H-benzo[d]imidazol-1-yl)piperidine-2,6-dione]",68.91%,–,–,–
55.9 nM,79.7%,2.42 nM,"CCOc1cc(N2CCC(N3CCN(CCc4cc(F)c(F)c5c4n(CC)c(=O)n5C4CCC(=O)NC4=O)CC3)CC2)c(CC)cc1Nc1ncc(Br)c(Nc2ccc3c(=O)n(CC)ncc3c2P(C)(C)=O)n1 (centres unmarked) [Example 743, 3-(4-(2-(4-(1-(4-((5-bromo-4-((5-(dimethylphosphoryl)-2-ethyl-1-oxo-1,2-dihydrophthalazin-6-yl)amino)pyrimidin-2-yl)amino)-5-ethoxy-2-ethylphenyl)piperidin-4-yl)piperazin-1-yl)ethyl)-3-ethyl-6,7-difluoro-2-oxo-2,3-dihydro-1H-benzo[d]imidazol-1-yl)piperidine-2,6-dione]",75.96%,–,–,–
4.53 nM,92.3%,0.647 nM,"CCc1cc(Nc2ncc(Br)c(Nc3ccc4nc(CO)ccc4c3P(C)(C)=O)n2)c(OC)cc1N1CCC(N2CCN(C(=O)[C@@H]3CCN(c4cc(F)c(C5CCC(=O)NC5=O)c(F)c4)C3)CC2)CC1 (stereo partly drawn) [Example 696, 3-(4-((R)-3-(4-(1-(4-((5-bromo-4-((5-(dimethylphosphoryl)-2-(hydroxymethyl)quinolin-6-yl)amino)pyrimidin-2-yl)amino)-2-ethyl-5-methoxyphenyl)piperidin-4-yl)piperazine-1-carbonyl)pyrrolidin-1-yl)-2,6-difluorophenyl)piperidine-2,6-dione]",75.49%,–,–,–
8.61 nM,–,4.29 nM,"CCOc1cc(N2CCC(N3CCN(C(=O)[C@H]4CN(c5cc(F)c([C@H]6CCC(=O)NC6=O)c(F)c5)CC4(C)C)CC3)CC2)c(C)cc1Nc1ncc(Br)c(Nc2ccc3nc(C)ccc3c2P(C)(C)=O)n1 [Example 727, (R)-3-(4-((R)-4-(4-(1-(4-((5-bromo-4-((5-(dimethylphosphoryl)-2-methylquinolin-6-yl)amino)pyrimidin-2-yl)amino)-5-ethoxy-2-methylphenyl)piperidin-4-yl)piperazine-1-carbonyl)-3,3-dimethylpyrrolidin-1-yl)-2,6-difluorophenyl)piperidine-2,6-dione]",77.39%,–,–,–
24.6 nM,93.4%,3.3 nM,"CCc1ccc2c(P(C)(C)=O)c(Nc3nc(Nc4cc(CC)c(N5CCC(N6CCN(C[C@H]7C[C@H](N(C)c8cc(F)c(C9CCC(=O)NC9=O)c(F)c8)C7)CC6)CC5)cc4OC)ncc3Br)ccc2n1 (some centres unmarked) [Example 691, 3-(4-(((1r,3r)-3-((4-(1-(4-((5-bromo-4-((5-(dimethylphosphoryl)-2-ethylquinolin-6-yl)amino)pyrimidin-2-yl)amino)-2-ethyl-5-methoxyphenyl)piperidin-4-yl)piperazin-1-yl)methyl)cyclobutyl)(methyl)amino)-2,6-difluorophenyl)piperidine-2,6-dione]",71.66%,–,–,–
6.68 nM,91.4%,0.593 nM,"CCc1cc(Nc2ncc(Br)c(Nc3ccc4nc(C)ccc4c3P(C)(C)=O)n2)c(OC)cc1N1CCC(N2CCN(CCC3CN(c4cccc5c4CN(C4CCC(=O)NC4=O)C5=O)C3)CC2)CC1 (centres unmarked) [Example 692, 3-(4-(3-(2-(4-(1-(4-((5-bromo-4-((5-(dimethylphosphoryl)-2-methylquinolin-6-yl)amino)pyrimidin-2-yl)amino)-2-ethyl-5-methoxyphenyl)piperidin-4-yl)piperazin-1-yl)ethyl)azetidin-1-yl)-1-oxoisoindolin-2-yl)piperidine-2,6-dione]",73%,–,–,–

# The next lines start with the compound.
SMILES,"DC50 [1, 3]","Dmax [1, 4]","DC50 [2, 5]","Dmax (%) H1975 # 28 DTC [2, 6]","DC50 ([1]; read-out: DC50(nM) BaF3-LTC; BaF3-LTC cells; EGFR degradation, IC50 (DC50) from curve fit)","Dmax ([1]; read-out: Dmax (%) BaF3-LTC, BaF3-LTC cells; maximum percentage of inhibition (degradation))","DC50 ([2]; read-out: DC50(nM) H1975 # 28 DTC; H1975 # 28 DTC cells; EGFR degradation, IC50 (DC50) from curve fit)"
"CCc1cc(Nc2ncc(Br)c(Nc3ccc4nc(C)sc4c3P(C)(C)=O)n2)c(OC)cc1N1CCC(N2CCN(CCc3cc(F)c([C@H]4CCC(=O)NC4=O)c(F)c3)CC2)CC1 [Example 661, (R)-3-(4-(2-(4-(1-(4-((5-bromo-4-((7-(dimethylphosphoryl)-2-methylbenzo[d]thiazol-6-yl)amino)pyrimidin-2-yl)amino)-2-ethyl-5-methoxyphenyl)piperidin-4-yl)piperazin-1-yl)ethyl)-2,6-difluorophenyl)piperidine-2,6-dione]",8.68 nM,85.8%,0.609 nM,87.94%,–,–,–
"CCc1cc(Nc2ncc(Br)c(Nc3ccc4nc(C)ccc4c3P(C)(C)=O)n2)c(OC2CC2)cc1N1CCC(N2CCN(CCc3cccc4c3n(C)c(=O)n4C3CCC(=O)NC3=O)CC2)CC1 (centres unmarked) [Example 642, 3-(4-(2-(4-(1-(4-((5-bromo-4-((5-(dimethylphosphoryl)-2-methylquinolin-6-yl)amino)pyrimidin-2-yl)amino)-5-cyclopropoxy-2-ethylphenyl)piperidin-4-yl)piperazin-1-yl)ethyl)-3-methyl-2-oxo-2,3-dihydro-1H-benzo[d]imidazol-1-yl)piperidine-2,6-dione]",1.42 nM,93.7%,0.617 nM,76.78%,–,–,–
"CCOc1cc(N2CCC(N3CCN(CCc4c(F)ccc5c4oc(=O)n5C4CCC(=O)NC4=O)CC3)CC2)c(CC)cc1Nc1ncc(Br)c(Nc2cc(F)c3nc(CC)ccc3c2P(C)(C)=O)n1 (centres unmarked) [Example 595, 3-(7-(2-(4-(1-(4-((5-bromo-4-((5-(dimethylphosphoryl)-2-ethyl-8-fluoroquinolin-6-yl)amino)pyrimidin-2-yl)amino)-5-ethoxy-2-ethylphenyl)piperidin-4-yl)piperazin-1-yl)ethyl)-6-fluoro-2-oxobenzo[d]oxazol-3(2H)-yl)piperidine-2,6-dione]",16.1 nM,82%,1.02 nM,72.7%,–,–,–
"CCOc1cc(N2CCC(N3CCN(CCc4cc(F)cc5c4oc(=O)n5C4CCC(=O)NC4=O)CC3)CC2)c(CC)cc1Nc1ncc(Br)c(Nc2ccc3nc(CC)ccc3c2P(C)(C)=O)n1 (centres unmarked) [Example 472, 3-(7-(2-(4-(1-(4-((5-bromo-4-((5-(dimethylphosphoryl)-2-ethylquinolin-6-yl)amino)pyrimidin-2-yl)amino)-5-ethoxy-2-ethylphenyl)piperidin-4-yl)piperazin-1-yl)ethyl)-5-fluoro-2-oxobenzo[d]oxazol-3(2H)-yl)piperidine-2,6-dione]",19.6 nM,86.9%,0.945 nM,80.01%,–,–,–
"CCOc1cc(N2CCC(N3CCN(CCCc4cccc5c4oc(=O)n5C4CCC(=O)NC4=O)CC3)CC2)c(CC)cc1Nc1ncc(Br)c(Nc2ccc3nc(CC)ncc3c2P(C)(C)=O)n1 (centres unmarked) [Example 615, 3-(7-(3-(4-(1-(4-((5-bromo-4-((5-(dimethylphosphoryl)-2-ethylquinazolin-6-yl)amino)pyrimidin-2-yl)amino)-5-ethoxy-2-ethylphenyl)piperidin-4-yl)piperazin-1-yl)propyl)-2-oxobenzo[d]oxazol-3(2H)-yl)piperidine-2,6-dione]",–,–,–,72.36%,7.91 nM,91%,0.921 nM
"CCOc1cc(N2CCC(N3CCN(CCc4ccc5c(c4)oc(=O)n5C4CCC(=O)NC4=O)CC3)CC2)c(C)cc1Nc1ncc(Br)c(Nc2ccc3nc(CC)ccc3c2P(C)(C)=O)n1 (centres unmarked) [Example 552, 3-(6-(2-(4-(1-(4-((5-bromo-4-((5-(dimethylphosphoryl)-2-ethylquinolin-6-yl)amino)pyrimidin-2-yl)amino)-5-ethoxy-2-methylphenyl)piperidin-4-yl)piperazin-1-yl)ethyl)-2-oxobenzo[d]oxazol-3 (2H)-yl)piperidine-2,6-dione]",4.35 nM,85.7%,0.367 nM,71.85%,–,–,–
"CCOc1cc(N2CCC(N3CCN(CCC4CCN(c5cc(F)cc6c5oc(=O)n6C5CCC(=O)NC5=O)CC4)CC3)CC2)c(CC)cc1Nc1ncc(Br)c(Nc2ccc3nc(CC)ccc3c2P(C)(C)=O)n1 (centres unmarked) [Example 556, 3-(7-(4-(2-(4-(1-(4-((5-bromo-4-((5-(dimethylphosphoryl)-2-ethylquinolin-6-yl)amino)pyrimidin-2-yl)amino)-5-ethoxy-2-ethylphenyl)piperidin-4-yl)piperazin-1-yl)ethyl)piperidin-1-yl)-5-fluoro-2-oxobenzo[d]oxazol-3(2H)-yl)piperidine-2,6-dione]",14.8 nM,92.2%,4.03 nM,98.64%,–,–,–
